Experimental data as given in patent US20080118553A1, “Tannate salt form of polypeptide mixtures, their preparation and use” (priority 2006, published 2008).

Test system: splenocytes (glatiramer specific T cells)
Test: Ex-vivo testing in CJSL mice: cytokine secretion by splenocytes activated in vitro with GA RS after daily feeding
Set-up: key: BQL: Below Quantifiable Limit; BDL: Below Detectable Limit; AQL: Above Quantifiable Limit
Settings: 50 μg/ml GA RS in-vitro
Method: Studies were conducted to test the potential properties of the mixture of polypeptides of the invention. In particular, the studies were to determine whether the mixture of polypeptides of the invention would elicit an immune response with similar cytokine patterns as those elicited by glatiramer acetate when tested in an ex-vivo model in mice.
Beginning on Day 0, groups of 4 CJSL Mice were fed daily with GA reference standard (GA RS, 12.5 μg/kg). Glatiramer Tannate (amount equivalent to 18.75 μg/kg), tannic acid (negative control, in an amount equivalent to the tannate administered to the 18.75 μg/kg glatiramer tannate group) or phosphate buffered saline (PBS—placebo control). During period of study, subsets of mice in each treatment group were sacrificed on days 4, 7 and 11. Spleens were excised and primary cell cultures were prepared. The effect of the treatment was tested by in-vitro activation of splenocytes with GA RS 50 μg/ml. The response of the cells to the challenge is a measure of previous exposure to Glatiramer and the generation of glatiramer specific T cells. T-cell response was monitored by detection of cytokines secreted from activated cells by ELISA analysis. The levels of IL-2, IL-3 and IL-5 cytokines were examined.

[1] = glatiramer dose NA (tannic acid equivalent to the tannate of the 18.75 group) daily oral, day of treatment 4
[2] = glatiramer dose NA (tannic acid equivalent to the tannate of the 18.75 group) daily oral, day of treatment 7
[3] = glatiramer dose NA (tannic acid equivalent to the tannate of the 18.75 group) daily oral, day of treatment 11
[4] = glatiramer treatment dose 12.5 Mg/kg daily oral, day of treatment 4
[5] = glatiramer treatment dose 12.5 Mg/kg daily oral, day of treatment 7
[6] = glatiramer treatment dose 12.5 Mg/kg daily oral, day of treatment 11

Molecule	IL-2 secretion [1]	IL-3 secretion [1]	IL-5 secretion [1]	IL-2 secretion [2] [pg/mL]	IL-3 secretion [2] [pg/mL]	IL-5 secretion [2]	IL-2 secretion [3] [pg/mL]	IL-3 secretion [3] [pg/mL]	IL-5 secretion [3]	IL-2 secretion [4]	IL-3 secretion [4]	IL-5 secretion [4]	IL-2 secretion [5] [pg/mL]	IL-3 secretion [5] [pg/mL]	IL-5 secretion [5]	IL-2 secretion [6] [pg/mL]	IL-3 secretion [6] [pg/mL]	IL-5 secretion [6]
O=C(OC[C@H]1O[C@@H](OC(=O)c2cc(O)c(O)c(OC(=O)c3cc(O)c(O)c(O)c3)c2)[C@H](OC(=O)c2cc(O)c(O)c(OC(=O)c3cc(O)c(O)c(O)c3)c2)[C@@H](OC(=O)c2cc(O)c(O)c(OC(=O)c3cc(O)c(O)c(O)c3)c2)[C@@H]1OC(=O)c1cc(O)c(O)c(OC(=O)c2cc(O)c(O)c(O)c2)c1)c1cc(O)c(O)c(OC(=O)c2cc(O)c(O)c(O)c2)c1 [Tannic Acid, tannic acid]	BQL	BQL	BDL	26.7	76.9	BQL	16.6	63.2	BQL									
L-glutamic acid polymer with L-alanine, L-lysine and L-tyrosine, acetate (salt) [GA]										BQL	BQL	BDL	121.5	456.5	BQL	119.0	701.6	BQL
